pIC50: −log10 of the molar value. Positions of bridges follow the written chain, without caps; N, C: chain ends. Non-standard residues stand in square brackets, D forms with d. Residues, ends and D or L forms follow the SMILES beside them. Chains are numbered I, II in the order given. No end group written: not given here. 4Abz = Nc1ccc(C(=O)O)cc1; 2Abz = Nc1ccccc1C(=O)O; Ahx = NCCCCCC(=O)O
Columns and labels:
[1] = RP-HPLC retention time as measure of hydrophobicity; type: physicochemical; conditions: Chromolith RP-18e, water/ACN with 0.05% TFA, 5-50% B from 1 to 9 min, 2 ml min^−1, 210 nm, used as measure of hydrophobicity
Experimental: The peptides were analysed using a Hitachi Primaide-DAD 1110 chromatograph and a Chromolith RP-18e High Resolution column (100 × 4.1 i.d. mm) (Merck, Darmstadt, Germany). Water containing 0.05% TFA was used as solvent A, and ACN containing 0.05% TFA was used as solvent B. The elution programme used was […] at a flow rate of 2 ml min^−1 and a wavelength of 210 nm. Ten microlitres of each peptide solution was injected at an approximate concentration of […].

[2] = tested on: MCF-7 breast cancer line; type: cell-based, human; conditions: 2 h
Experimental: (§1) The MTT assay was performed in accordance with previous reports. Briefly, the cells were seeded with a complete medium in 96-well plates at a rate of 10 000 cells and 100 µl per well, and adhesion to the plates was allowed for 24 h. Later, the complete medium was removed, and an incomplete medium was added for synchronization for another 24 h. The cells were then incubated at 37°C for 2 h with 100 µl of peptide at the evaluated concentrations (200, 100, 50, 25, 12.5 and 6.25 µg ml^−1). Next, the peptide was removed from the well and 100 µl of incomplete medium with 10% MTT was added and incubated for 4 h. The medium was replaced with 100 µl of isopropanol, and after 30 min of incubation at 37°C, the absorbance was measured at 575 nm. As a negative control, an incomplete culture medium with 10% MTT was used, and as a positive control, cells without MTT treatment were used. The IC50 value was determined from figure 1 (peptide concentration versus per cent cell viability) using a nonlinear regression model with variable slope and GraphPad Prism 9 statistical analysis software.

[3] = tested on: human primary fibroblasts; type: cell-based
Excerpt: Rink amide resin, Fmoc-Arg(Pbf)-OH, Fmoc-Trp(Boc)-OH, Fmoc-Gln(Trt)-OH, Fmoc-Phe-OH, Fmoc-Lys(Boc)-OH, Fmoc-Leu-OH, Fmoc-Gly-OH, Fmoc-6-Ahx-OH, Fmoc-Lys(Fmoc)-OH, Triton-X, piperidine, N,N-dimethylformamide (DMF), dichloromethane (DCM), dicyclohexylcarbodiimide (DCC), 1-hydroxy-6-chloro-benzotriazole (6-Cl-HOBt), ninhydrin, potassium cyanide (KCN), ethanol, pyridine, phenol, trifluoroacetic acid (TFA), ethyl ether, triisopropylsilane (TIS), ethanedithiol (EDT), acetonitrile (ACN), methanol (MeOH) and solid phase extraction columns Supelco, Trypsin-EDTA solution and pepsin 2500 units mg^−1 were purchased from Sigma-Aldrich (St Louis, MO, USA). The non-natural amino acids diphenylalanine, 1-naphthyl-phenylalanine, 4-benzoyl-phenylalanine, homophenylalanine (hF), 4-(Fmoc-amino) benzoic acid (4-Abz) and 2-(Fmoc-amino) benzoic acid (2-Abz) were obtained from AAPPTec (Louisville, KY, USA). The cell lines MCF-7, HeLa, HEK-293 were purchased from ATCC (Manassas, VA). The primary cell culture of fibroblasts was obtained from the foreskin by the Laboratory of Cellular Physiology of the National University of Colombia, and the fibroblasts were cultured and frozen. Some vials were thawed and cultured for up to seven passes, since no transformation/immortalization was done. Annexin V and Alexa Fluor 488 conjugate was purchased from Invitrogen (Eugene, Oregon). The DMEM culture medium and trypsin were obtained from Sigma-Aldrich (St Louis, MO, USA). Bovine fetal serum was purchased from Gibco (Waltham, MA, USA). Calcium assay kit and Fluorescein CaspGLOW Active Caspase-8 or Caspase-9 Staining Kit were obtained for BD Biosciences (San Diego, CA, USA) and Invitrogen Thermo Fisher Scientific (Waltham, MA, USA), respectively.
as §1, with “The cells were then incubated at 37°C for 2 h with 100 µl of peptide at the evaluated concentrations (200, 100, 50, 25, 12.5 and 6.25 µg ml^−1).” left out

[4] = tested on: HEK-293 human kidney cell line; type: cell-based
Experimental: as §1, with “The cells were then incubated at 37°C for 2 h with 100 µl of peptide at the evaluated concentrations (200, 100, 50, 25, 12.5 and 6.25 µg ml^−1).” left out

[5] = target: trypsin (Sus scrofa, UniProt P00761)
Experimental: Trypsin (20 μg) was dissolved in 450 µl of the buffer supplied by the manufacturer, and 50 µl was added to each peptide solution, maintaining a protease : peptide ratio of 1 : 100 (w/w). The samples were incubated at 37°C for 24 h. Aliquots were taken at 0, 5, 10, 15 and 20 min, the enzymatic reaction was stopped by adding 1 M HCl, and the mixture was analysed via RP-HPLC and LC-MS. Bovine serum albumin (BSA) and bovine lactoferrin (bLF) were used as the positive control, and the negative control was the peptide in buffer solution without trypsin.

[6] = tested on: CD1 mice; assay: Peptide toxicity in vivo model (Irwin test, survival)
Experimental: Experiment 1. CD1 mice male (eight weeks old, weighing 33–35 g) were housed in groups of six animals per cage for each peptide ^26[F] and ^26[1-Nal]; three mice were inoculated by intraperitoneal via ip, and three mice were inoculated by subcutaneous via sc. Mice inoculated via ip or sc with saline solution were used as control. The peptide was dissolved in saline solution (7 mg ml^−1) and the mice were inoculated only one time with 0.33–0.35 ml (dosage 70 mg kg^−1) via ip or sc. Experiment 2. CD1 mice female (n = 4, eight weeks old, weighing 33–35 g) were inoculated only one time with peptide ^26[F] (dosage 140 mg kg^−1) or ^26[1-Nal] (8.8 to 70 mg kg^−1).
To determine the toxicity of peptides ^26[F] and ^26[1-Nal] in vivo model, a preliminary study was carried out in CD1 male mice. The Irwin test was used to evaluate in qualitative manner the effect of peptide administration over motor functions, behaviour, physiology and pharmacological safety in rodents. This test is used as a first approach to study of the adverse effects generated by a pharmaceutical treatment in an in vivo model in preclinical test.

[7] = tested on: human erythrocytes; type: cell-based
Experimental: Haemolysis assays were performed in accordance with Cárdenas et al.. The blood was donated by healthy volunteers with blood type O^+. First, 5 ml of peripheral blood in EDTA was centrifuged at 500 r.p.m. for 15 min, and the erythrocytes were separated and washed three times with 0.9% saline solution. Then 100 µl of peptide solution (final concentrations of 200 at 6.2 µg ml^−1) was mixed with 100 µl of erythrocytes (2% haematocrit) and incubated at 37°C for 2 h. It was then centrifuged at 2500 r.p.m. for 5 min and the absorbance of the supernatant was measured at 450 nm. Two controls were used; positive control: distilled water, and negative control: saline solution 0.9%.

[8] = tested on: HeLa human cervical cancer cell line; type: cell-based; conditions: 2 h
Experimental: as §1

[9] = target: pepsin (Sus scrofa, UniProt P00791); conditions: pH 2
Experimental: Pepsin was dissolved in 0.010 M HCl (pH 2.0). An aliquot of 50 µl was added to each peptide solution in a 1 : 100 (w/w) ratio. The peptides were dissolved in H2O-TFA 0.05% (v/v). This was incubated at 37°C for 3 h, aliquots were taken at 0 and 3 h, and the samples were heated for 5 min and then cooled at 4°C for the thermal inactivation of pepsin and characterized via HPLC and LC-MS.

[10] = tested on: pepsin; assay: Pepsin dissolved in 0.010 M HCl (pH 2.0); peptides dissolved in H2O-TFA 0.05% (v/v); conditions: 37°C, up to 3 h
[11] = tested on: human breast cancer lines MDA-MB-468 and MDA-MB-231; conditions: 4 mg via intra-tumoural route, cited from earlier work
Experimental: Mice treated with peptide ^26[F] recovered completely after 24 h, and the survival rate was 100% after one week of observation. […] Peptide ^26[F] was inoculated in female mic ...

[12] = ratio of IC50 values, in brackets

Chain of trypsin (P00761 9-231): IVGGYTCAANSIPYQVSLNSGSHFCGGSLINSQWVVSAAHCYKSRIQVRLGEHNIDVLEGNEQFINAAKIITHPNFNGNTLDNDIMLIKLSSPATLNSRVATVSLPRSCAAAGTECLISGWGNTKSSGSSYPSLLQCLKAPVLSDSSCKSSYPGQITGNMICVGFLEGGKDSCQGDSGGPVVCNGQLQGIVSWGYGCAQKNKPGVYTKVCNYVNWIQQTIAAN
Chain of pepsin (Sus scrofa, UniProt P00791) (P00791 60-385): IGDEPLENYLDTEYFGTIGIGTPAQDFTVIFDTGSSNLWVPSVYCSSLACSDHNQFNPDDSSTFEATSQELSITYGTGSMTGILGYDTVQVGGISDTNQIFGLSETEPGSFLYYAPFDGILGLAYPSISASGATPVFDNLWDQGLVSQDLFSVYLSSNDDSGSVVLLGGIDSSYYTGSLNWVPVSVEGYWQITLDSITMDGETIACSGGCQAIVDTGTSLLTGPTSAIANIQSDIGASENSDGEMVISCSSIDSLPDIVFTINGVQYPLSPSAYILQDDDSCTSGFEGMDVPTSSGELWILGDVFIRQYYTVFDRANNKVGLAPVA

CC(C)C[C@H](NC(=O)[C@H](CCCCN)NC(=O)[C@H](CCCCN)NC(=O)c1ccccc1NC(=O)[C@H](Cc1c[nH]c2ccccc12)NC(=O)[C@H](CCC(N)=O)NC(=O)[C@H](Cc1c[nH]c2ccccc12)NC(=O)[C@H](CCCNC(=N)N)NC(=O)[C@@H](N)CCCNC(=N)N)C(=O)NCC(=O)NCCCC[C@H](NC(=O)CNC(=O)[C@H](CC(C)C)NC(=O)[C@H](CCCCN)NC(=O)[C@H](CCCCN)NC(=O)c1ccccc1NC(=O)[C@H](Cc1c[nH]c2ccccc12)NC(=O)[C@H](CCC(N)=O)NC(=O)[C@H](Cc1c[nH]c2ccccc12)NC(=O)[C@H](CCCNC(=N)N)NC(=O)[C@@H](N)CCCNC(=N)N)C(=O)NCCCCCC(N)=O [^26[2-Abz], (RRWQWR-2-Abz-KKLG)2-K-Ahx] (I: H-RRWQW[2Abz]KKLGK[Ahx]-NH2 / II: H-RRWQW[2Abz]KKLG; amide I:11-II:C; N-terminus assumed)
tR [1]: 5.9 min

CC(C)C[C@H](NC(=O)[C@H](CCCCN)NC(=O)[C@H](CCCCN)NC(=O)c1ccc(NC(=O)[C@H](Cc2c[nH]c3ccccc23)NC(=O)[C@H](CCC(N)=O)NC(=O)[C@H](Cc2c[nH]c3ccccc23)NC(=O)[C@H](CCCNC(=N)N)NC(=O)[C@@H](N)CCCNC(=N)N)cc1)C(=O)NCC(=O)NCCCC[C@H](NC(=O)CNC(=O)[C@H](CC(C)C)NC(=O)[C@H](CCCCN)NC(=O)[C@H](CCCCN)NC(=O)c1ccc(NC(=O)[C@H](Cc2c[nH]c3ccccc23)NC(=O)[C@H](CCC(N)=O)NC(=O)[C@H](Cc2c[nH]c3ccccc23)NC(=O)[C@H](CCCNC(=N)N)NC(=O)[C@@H](N)CCCNC(=N)N)cc1)C(=O)NCCCCCC(N)=O [^26[4-Abz], (RRWQWR-4-Abz-KKLG)2-K-Ahx] (I: H-RRWQW[4Abz]KKLGK[Ahx]-NH2 / II: H-RRWQW[4Abz]KKLG; amide I:11-II:C; N-terminus assumed)
tR [1]: 5.9 min | pIC50 [2]: 4.31

CC(C)C[C@H](NC(=O)[C@H](CCCCN)NC(=O)[C@H](CCCCN)NC(=O)[C@H](Cc1ccccc1)NC(=O)[C@H](CCCNC(=N)N)NC(=O)[C@H](Cc1c[nH]c2ccccc12)NC(=O)[C@H](CCC(N)=O)NC(=O)[C@H](Cc1c[nH]c2ccccc12)NC(=O)[C@H](CCCNC(=N)N)NC(=O)[C@@H](N)CCCNC(=N)N)C(=O)NCC(=O)NCCCC[C@H](NC(=O)CNC(=O)[C@H](CC(C)C)NC(=O)[C@H](CCCCN)NC(=O)[C@H](CCCCN)NC(=O)[C@H](Cc1ccccc1)NC(=O)[C@H](CCCNC(=N)N)NC(=O)[C@H](Cc1c[nH]c2ccccc12)NC(=O)[C@H](CCC(N)=O)NC(=O)[C@H](Cc1c[nH]c2ccccc12)NC(=O)[C@H](CCCNC(=N)N)NC(=O)[C@@H](N)CCCNC(=N)N)C(=O)NCCCCCC(N)=O [^26[F], (RRWQWR-F-KKLG)2-K-Ahx] (I: H-RRWQWRFKKLGK[Ahx]-NH2 / II: H-RRWQWRFKKLG; amide I:12-II:C)
IC50 fibroblasts ([3]; 2 h): 121(35) µg mL^−1 | selectivity index IC50 fibroblasts/IC50 MCF-7 ([3]; ratio of IC50 values): 1.5 | selectivity index IC50 fibroblasts/IC50 HeLa [3, 12]: 5.0 | IC50 HEK-293 ([4]; 2 h): 203(59) µg mL^−1 | selectivity index IC50 HEK-293/IC50 MCF-7 ([4]; ratio of IC50 values): 2.6 | selectivity index IC50 HEK-293/IC50 HeLa [4, 12]: 8.4 | proteolytic degradation by trypsin, 5 min [5]: two fragments were also generated | proteolytic degradation by trypsin, 10 min [5]: disappeared completely | observed signs after ip administration (Irwin test) ([6]; experiment 1, male CD1 mice, ip 70 mg kg^−1): motor function decreased 30 min after peptide administration and abdominal contortions were observed | survival (%) ip ([6]; experiment 1, male CD1 mice, single ip dose 70 mg kg^−1, n = 3, one week of observation): 100% | survival (%) sc ([6]; experiment 1, male CD1 mice, single sc dose 70 mg kg^−1, n = 3): 100% | survival (%) ip ([6]; experiment 2, female CD1 mice, single ip dose 140.0 mg kg^−1, n = 4): 0% | observed signs after ip administration ([6]; female mice, ip 140 mg kg^−1, after 30 min of treatment): decreased motor function, abdominal contractions, excess irrigation, marked ataxia and loss of coordination | IC50 erythrocytes ([7]; 2 h): >200(>58) µg mL^−1 | selectivity index IC50 erythrocytes/IC50 MCF-7 ([7]; ratio of IC50 values): > 2.5 | selectivity index IC50 erythrocytes/IC50 HeLa [7, 12]: > 8.3 | IC50 HeLa [8]: 24(7) µg mL^−1 | pIC50 [2]: 4.64 | IC50 MCF-7 [2]: 79(23) µg mL^−1 | proteolytic degradation by pepsin [9]: degraded into two fragments

(RRWQWR-1-Nal-KKLG)2-K-Ahx
not cleaved [10]: pepsin treatment for 3 h did not induce proteolytic degradation

(RRWQWR-hF-KKLG)2-K-Ahx
not cleaved [10]: pepsin treatment for 3 h did not induce proteolytic degradation

Bovine lactoferricin (FKCRRWQWRMKKLGAPSITCVRRAF; ends and bridges not checked; cysteine pairing not given here; UniProt P24627 36-60, looked up) [LfcinB, 25-amino acid ACP generated by gastric pepsin digestion of bovine lactoferrin]
safety on administration ([11]; NOD-SCI-gamma mice): safe | anti-tumoural effect ([11]; xenografts of MDA-MB-468 and MDA-MB-231 in NOD-SCI-gamma mice): had anti-tumoural effect
